Laboratory results as given in ChEMBL document CHEMBL1208722, “Synthesis of 2-(4-substituted benzyl-1,4-diazepan-1-yl)-N-(3,4-dihydro-3-oxo-2H-benzo[b][1,4]oxazin-7-yl)acetamides and their positive inotropic evaluation” (Bioorg Med Chem Lett, 2010).

Key:
[1] = Chronotropic activity in perfused rabbit left atrium assessed as change in heart rate (RVB = 89.51 +/- 0.09 beats/mins); format: tissue-based, Oryctolagus cuniculus, Cardiac atrium
[2] = Positive inotropic activity in perfused rabbit left atrium assessed as increase in stroke volume at 10 uM; format: functional, Oryctolagus cuniculus, Cardiac atrium
[3] = Chronotropic activity in perfused rabbit left atrium assessed as change in heart rate (RVB = 105.33 +/- 0.12 beats/mins); format: tissue-based, Oryctolagus cuniculus, Cardiac atrium
[4] = Chronotropic activity in perfused rabbit left atrium assessed as change in heart rate (RVB = 102.31 +/- 0.07 beats/mins); format: tissue-based, Oryctolagus cuniculus, Cardiac atrium
[5] = organism: Oryctolagus cuniculus; experiment: Positive inotropic activity in perfused rabbit left atrium assessed as increase in stroke volume; format: functional, tissue-based; details: Cardiac atrium
[6] = Chronotropic activity in perfused rabbit left atrium assessed as change in heart rate (RVB = 92.52 +/- 017 beats/mins); format: tissue-based, Oryctolagus cuniculus, Cardiac atrium

COc1cc(CN2CCCN(CC(=O)Nc3ccc4c(c3)OCC(=O)N4)CC2)ccc1OCc1ccc(Cl)cc1
Activity [1]: 80.02 bpm | Activity [2]: 2.87%

Cc1[nH]c(=O)c(C#N)cc1-c1ccncc1 [MILRINONE]
Activity [2]: 2.38%

COc1cccc(CN2CCN(CC(=O)Nc3ccc4c(c3)OCC(=O)N4)CC2)c1
Activity [2]: 3.96%

O=C(CN1CCCN(Cc2ccccc2F)CC1)Nc1ccc2c(c1)OCC(=O)N2
Activity [3]: 102.88 bpm | Activity [2]: 6.05%

O=C(CN1CCCN(Cc2ccccc2Br)CC1)Nc1ccc2c(c1)OCC(=O)N2
Activity [4]: 98.64 bpm | Activity [5]: Dose-dependent effect | Activity [2]: 7.68%

COc1ccc(CN2CCCN(CC(=O)Nc3ccc4c(c3)OCC(=O)N4)CC2)cc1
Activity [6]: 89.37 bpm | Activity [2]: 3.22%
